# Results as given in PubChem BioAssay AID2060907 (Molecular Pharmacology Branch, DTP, NCI, 2025).
# Test system: 388556-164-R-J1-PDC complex spheroid viability
# Test: Anticancer human tumor 388556-164-R-J1-PDC patient-derived colon adenocarcinoma cell line growth inhibition [RAS]
# Settings: for IC50: curve of first compound; for viability, T/C: stronger effect = lower value
# How it was run: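 Agents were tested in combination matrices in half-log decrements from a top concentration at or near clinical Cmax (10 microM if undetermined). Targets were multi-cell spheroids of tumour lines plus HUVEC and MSC stromal cells.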
# 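Further: spheroids exposed to compound for 7 days before readout.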
# 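Wherever viability, T/C is given: 100% = DMSO vehicle control luminescence.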
smiles,measurement,setting,value
CCc1c2c(nc3ccc(O)cc13)-c1cc3c(c(=O)n1C2)COC(=O)[C@]3(O)CC + C#Cc1c(F)ccc2cc(O)cc(-c3ncc4c(N5CC6CCC(C5)N6)nc(OCC56CCCN5CC(F)C6)nc4c3F)c12,IC50,second compound 0.0316 µM,94.1 nM
same,IC50,second compound 0.1 µM,104 nM
same,IC50,second compound 0.316 µM,97.8 nM
same,IC50,second compound 1 µM,78.1 nM
same,IC50,second compound 3.16 µM,85.6 nM
same,IC50,second compound 10 µM,42.8 nM
same,"viability, T/C","second compound 0.0316 µM, first compound 0.000949 µM",94.4%
same,"viability, T/C","second compound 0.0316 µM, first compound 0.003 µM",96.1%
same,"viability, T/C","second compound 0.0316 µM, first compound 0.00949 µM",83.6%
same,"viability, T/C","second compound 0.0316 µM, first compound 0.03 µM",69%
same,"viability, T/C","second compound 0.0316 µM, first compound 0.0949 µM",50.4%
same,"viability, T/C","second compound 0.0316 µM, first compound 0.3 µM",36.2%
same,"viability, T/C","second compound 0.1 µM, first compound 0.000949 µM",108%
same,"viability, T/C","second compound 0.1 µM, first compound 0.003 µM",82.4%
same,"viability, T/C","second compound 0.1 µM, first compound 0.00949 µM",84.4%
same,"viability, T/C","second compound 0.1 µM, first compound 0.03 µM",70.3%
same,"viability, T/C","second compound 0.1 µM, first compound 0.0949 µM",52.6%
same,"viability, T/C","second compound 0.1 µM, first compound 0.3 µM",31.6%
same,"viability, T/C","second compound 0.316 µM, first compound 0.000949 µM",93.6%
same,"viability, T/C","second compound 0.316 µM, first compound 0.003 µM",94.8%
same,"viability, T/C","second compound 0.316 µM, first compound 0.00949 µM",71.4%
same,"viability, T/C","second compound 0.316 µM, first compound 0.03 µM",67.2%
same,"viability, T/C","second compound 0.316 µM, first compound 0.0949 µM",55.8%
same,"viability, T/C","second compound 0.316 µM, first compound 0.3 µM",25.5%
same,"viability, T/C","second compound 1 µM, first compound 0.000949 µM",92.1%
same,"viability, T/C","second compound 1 µM, first compound 0.003 µM",89%
same,"viability, T/C","second compound 1 µM, first compound 0.00949 µM",60.5%
same,"viability, T/C","second compound 1 µM, first compound 0.03 µM",71.4%
same,"viability, T/C","second compound 1 µM, first compound 0.0949 µM",50.5%
same,"viability, T/C","second compound 1 µM, first compound 0.3 µM",23.3%
same,"viability, T/C","second compound 3.16 µM, first compound 0.000949 µM",80.2%
same,"viability, T/C","second compound 3.16 µM, first compound 0.003 µM",72.8%
same,"viability, T/C","second compound 3.16 µM, first compound 0.00949 µM",66.2%
same,"viability, T/C","second compound 3.16 µM, first compound 0.03 µM",60.1%
same,"viability, T/C","second compound 3.16 µM, first compound 0.0949 µM",53.8%
same,"viability, T/C","second compound 3.16 µM, first compound 0.3 µM",20.8%
same,"viability, T/C","second compound 10 µM, first compound 0.000949 µM",72.4%
same,"viability, T/C","second compound 10 µM, first compound 0.003 µM",61.4%
same,"viability, T/C","second compound 10 µM, first compound 0.00949 µM",63%
same,"viability, T/C","second compound 10 µM, first compound 0.03 µM",55.1%
same,"viability, T/C","second compound 10 µM, first compound 0.0949 µM",41.1%
same,"viability, T/C","second compound 10 µM, first compound 0.3 µM",20.6%
Nc1ccn(C2OC(CO)C(O)C2(F)F)c(=O)n1 (centres undefined) + C#Cc1c(F)ccc2cc(O)cc(-c3ncc4c(N5CC6CCC(C5)N6)nc(OCC56CCCN5CC(F)C6)nc4c3F)c12,IC50,second compound 0.0316 µM,> 1000 nM
same,IC50,second compound 0.1 µM,> 1000 nM
same,IC50,second compound 0.316 µM,> 1000 nM
same,IC50,second compound 1 µM,> 1000 nM
same,IC50,second compound 3.16 µM,> 1000 nM
same,IC50,second compound 10 µM,> 1000 nM
same,"viability, T/C","second compound 0.0316 µM, first compound 0.00316 µM",95%
same,"viability, T/C","second compound 0.0316 µM, first compound 0.01 µM",95.6%
same,"viability, T/C","second compound 0.0316 µM, first compound 0.0316 µM",86%
same,"viability, T/C","second compound 0.0316 µM, first compound 0.1 µM",79.5%
same,"viability, T/C","second compound 0.0316 µM, first compound 0.316 µM",76%
same,"viability, T/C","second compound 0.0316 µM, first compound 1 µM",72.6%
same,"viability, T/C","second compound 0.1 µM, first compound 0.00316 µM",106%
same,"viability, T/C","second compound 0.1 µM, first compound 0.01 µM",96.6%
same,"viability, T/C","second compound 0.1 µM, first compound 0.0316 µM",80.4%
same,"viability, T/C","second compound 0.1 µM, first compound 0.1 µM",74.9%
same,"viability, T/C","second compound 0.1 µM, first compound 0.316 µM",74.9%
same,"viability, T/C","second compound 0.1 µM, first compound 1 µM",78.5%
same,"viability, T/C","second compound 0.316 µM, first compound 0.00316 µM",98.9%
same,"viability, T/C","second compound 0.316 µM, first compound 0.01 µM",93.2%
same,"viability, T/C","second compound 0.316 µM, first compound 0.0316 µM",60.9%
same,"viability, T/C","second compound 0.316 µM, first compound 0.1 µM",74.8%
same,"viability, T/C","second compound 0.316 µM, first compound 0.316 µM",75.8%
same,"viability, T/C","second compound 0.316 µM, first compound 1 µM",64.7%
same,"viability, T/C","second compound 1 µM, first compound 0.00316 µM",98.6%
same,"viability, T/C","second compound 1 µM, first compound 0.01 µM",82.5%
same,"viability, T/C","second compound 1 µM, first compound 0.0316 µM",60.1%
same,"viability, T/C","second compound 1 µM, first compound 0.1 µM",76.9%
same,"viability, T/C","second compound 1 µM, first compound 0.316 µM",75.5%
same,"viability, T/C","second compound 1 µM, first compound 1 µM",54.2%
same,"viability, T/C","second compound 3.16 µM, first compound 0.00316 µM",82.6%
same,"viability, T/C","second compound 3.16 µM, first compound 0.01 µM",70.1%
same,"viability, T/C","second compound 3.16 µM, first compound 0.0316 µM",69.5%
same,"viability, T/C","second compound 3.16 µM, first compound 0.1 µM",67.1%
same,"viability, T/C","second compound 3.16 µM, first compound 0.316 µM",68%
same,"viability, T/C","second compound 3.16 µM, first compound 1 µM",54.1%
same,"viability, T/C","second compound 10 µM, first compound 0.00316 µM",76.3%
same,"viability, T/C","second compound 10 µM, first compound 0.01 µM",67.1%
same,"viability, T/C","second compound 10 µM, first compound 0.0316 µM",52.6%
same,"viability, T/C","second compound 10 µM, first compound 0.1 µM",54.9%
same,"viability, T/C","second compound 10 µM, first compound 0.316 µM",48.5%
same,"viability, T/C","second compound 10 µM, first compound 1 µM",49.1%
